# Test results taken from PMC7966987, “Insights into the catalytic properties of the mitochondrial rhomboid protease PARL” (The Journal of Biological Chemistry, 2021).
# Read-outs that look alike come from different tables or passages of the source.
# T1: PARLΔ77 (Homo sapiens, UniProt Q9H300)
# T1 construct: GFP-hexahistidine (behind a TEV cleavage site) (C, cleaved yes); made in house; host or cells: Pichia pastoris
# T1 sequence (Q9H300 78-379): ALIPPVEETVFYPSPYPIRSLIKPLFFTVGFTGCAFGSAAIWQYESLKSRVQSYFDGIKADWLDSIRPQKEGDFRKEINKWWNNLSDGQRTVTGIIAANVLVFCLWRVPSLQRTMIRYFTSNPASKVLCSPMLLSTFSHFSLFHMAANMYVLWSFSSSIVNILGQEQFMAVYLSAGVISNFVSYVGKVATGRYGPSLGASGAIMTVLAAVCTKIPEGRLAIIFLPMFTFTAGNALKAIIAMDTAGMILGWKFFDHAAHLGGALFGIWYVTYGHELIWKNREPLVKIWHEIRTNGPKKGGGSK
# B1: HiGlpG: bacterial rhomboid protease from Haemophilus influenzae (protein, UniProt P44783 1-192, looked up)
# Rhomboid protease GlpG: MKNFLAQQGKITLILTALCVLIYLAQQLGFEDDIMYLMHYPAYEEQDSEVWRYISHTLVHLSNLHILFNLSWFFIFGGMIERTFGSVKLLMLYVVASAITGYVQNYVSGPAFFGLSGVVYAVLGYVFIRDKLNHHLFDLPEGFFTMLLVGIALGFISPLFGVEMGNAAHISGLIVGLIWGFIDSKLRKNSLE
# B2: AarA: bacterial rhomboid protease from P. stuartii (protein, UniProt P46116 1-281, looked up)
# Rhomboid protease AarA: MAEQQNPFSIKSKARFSLGAIALTLTLVLLNIAVYFYQIVFASPLDSRESNLILFGANIYQLSLTGDWWRYPISMMLHSNGTHLAFNCLALFVIGIGCERAYGKFKLLAIYIISGIGAALFSAYWQYYEISNSDLWTDSTVYITIGVGASGAIMGIAAASVIYLIKVVINKPNPHPVIQRRQKYQLYNLIAMIALTLINGLQSGVDNAAHIGGAIIGALISIAYILVPHKLRVANLCITVIAASLLTMMIYLYSFSTNKHLLEEREFIYQEVYTELADANQ
# B3: GlpG: E. coli rhomboid protease (protein, UniProt P09391 1-276, looked up)
# Rhomboid protease GlpG: MLMITSFANPRVAQAFVDYMATQGVILTIQQHNQSDVWLADESQAERVRAELARFLENPADPRYLAASWQAGHTGSGLHYRRYPFFAALRERAGPVTWVMMIACVVVFIAMQILGDQEVMLWLAWPFDPTLKFEFWRYFTHALMHFSLMHILFNLLWWWYLGGAVEKRLGSGKLIVITLISALLSGYVQQKFSGPWFGGLSGVVYALMGYVWLRGERDPQSGIYLQRGLIIFALIWIVAGWFDLFGMSMANGAHIAGLAVGLAMAFVDSLNARKRK
# Legend:
# PARLΔ77 [1] = biological target: T1, PARLΔ77; experiment: Multiplex substrate profiling by mass spectrometry (MSP-MS), PARLΔ77 in proteoliposomes; assay type: biochemical; conditions: PARLΔ77 1 μM in PL containing PC, PE and CL, peptides 0.5 μM each, pH 7.0, without DDM, LC-MS/MS, quadruplicate; for FC_60min (fold change of cleavage product, Annotated_Sequence): 60 vs 0 min; for FC_240min (fold change of cleavage product, Annotated_Sequence): 240 vs 0 min
# Procedure: (§1) Multiplex substrate profiling by mass spectrometry (MSP-MS) assays was performed in quadruplicate. In total, 1 μM of PARLΔ77 was incubated with an equimolar mixture of 228 synthetic tetradecapeptides at a final concentration of 0.5 μM for each peptide in 50 mM Tris-HCl pH 7.0, 150 mM NaCl, 10% glycerol, with or without 0.1% DDM. The sequence of each peptide is listed in Supplementary Data File. These peptides have been validated as substrates for a wide variety of proteolytic enzymes (PMID 23023596, 24073241, 25944934) including bacterial rhomboid proteases (30705125). For each assay, 20 μl of the reaction mixture was removed after 0, 60, and 240 min of incubation. Enzyme activity was quenched by adding GuHCl (MP Biomedicals) to a final concentration of 6.4 M, and samples were immediately stored at –80 °C. All samples were desalted using C18 spin columns and dried by vacuum centrifugation.
# (§2) Approximately 2 μg of peptides was injected into a Q-Exactive Mass Spectrometer (Thermo) equipped with an Ultimate 3000 HPLC. Peptides were separated by reverse-phase chromatography on a C18 column (1.7 μm bead size, 75 μm × 25 cm, 65 °C) at a flow rate of 300 nl/min using a 60-min linear gradient from 5% to 30% B, with solvent A: 0.1% formic acid in water and solvent B: 0.1% formic acid in acetonitrile. Survey scans were recorded over a 150–2000 m/z range (70,000 resolutions at 200 m/z, AGC target 3 × 10^6, 100 ms maximum). MS/MS was performed in data-dependent acquisition mode with HCD fragmentation (28 normalized collision energy) on the 12 most intense precursor ions (17,500 resolutions at 200 m/z, AGC target 1 × 10^5, 50 ms maximum, dynamic exclusion 20 s).
# (§3) Data was processed using PEAKS 8.5 (Bioinformatics Solutions Inc). MS^2 data were searched against the 228 tetradecapeptide library sequences with decoy sequences in reverse order. A precursor tolerance of 20 ppm and 0.01 Da for MS^2 fragments was defined. No protease digestion and modification were specified. Data were filtered to 1% peptide-level false discovery rates with the target-decoy strategy. Peptides were quantified with label-free quantification and data are normalized by medians and filtered by 0.3 peptide quality. Missing and zero values are imputed with random normally distributed numbers in the range of the average of smallest 5% of the data ± SD. Cleaved sequences were defined as peptide products that increase by a fold change of >8 and q value <0.05 (by Student t test) between 0 min and 240 min. IceLogo software was used for visualization of amino-acid frequency surrounding the cleavage sites. Amino acids that were most frequently observed (above axis) and least frequently observed (below axis) from P4 to P4ʹ positions were illustrated. Norleucine (Nle) was represented as “n” in the reported profiles. Mass spectrometry data and searching results have been deposited in MassIVE with accession number, MSV000085295.
# PARLΔ77 [2] = biological target: T1, PARLΔ77; experiment: Multiplex substrate profiling by mass spectrometry (MSP-MS), PARLΔ77 in DDM; assay type: biochemical; conditions: PARLΔ77 1 μM, 0.1% DDM, peptides 0.5 μM each, LC-MS/MS, quadruplicate; for FC_60min (fold change of cleavage product, Annotated_Sequence): pH 7.0, 60 vs 0 min; for FC_240min (fold change of cleavage product, Annotated_Sequence): pH 7.0, 240 vs 0 min
# Procedure: as §1, §2, §3
# PARLΔ77 [3] = biological target: T1, PARLΔ77; experiment: Lipid effect on PARLΔ77 cleavage of FRET-PINK1(70-134); assay type: biochemical; conditions: vs no lipid, N = 4
# From the text: Lipids are known to influence membrane protein function ([29]). In mitochondria, for example, increased CL amounts are observed during mitochondrial stress, which influences protein function at the molecular level ([30]). Therefore, we assessed the effect of the three primary lipids present in the IMM, namely CL, phosphatidylcholine (POPC), and phosphatidylethanolamine (POPE) on PARLΔ77 activity with the FRET-PINK^70–134 substrate (Fig. 1D) ([31]). The lipid-free conditions were used as a baseline and consisted of PARLΔ77 reconstituted in detergent (DDM) micelles, while all lipid conditions consisted of a mixed detergent-lipid micelle system. First we assess the effect of different classes of lipids. […] In order to precisely determine the optimal concentration of CL for PARL activity, the initial velocities of PARL-mediated cleavage of FRET-PINK1^70–134 were measured in the presence of increasing concentrations of CL. […] Therefore, CL was included in all subsequent protein preparations of detergent-solubilized PARL at the last purification step.
# Figure S5. The dependence of PA R LΔ77activity on CL concentration. The initial velocities of PA R LΔ77weremeasuredin the presence of different molar ratios of CL using FRET-PINK170-134 substrate. One-way ANOVA with multiple comparisons was performed between the no-lipid condition and each molar ratio of CL:protein to determine if differences observed were significant. A total of five experimental replicates performed in duplicate were used for data analysis (N = 5). Individual data points (black dots) are indicated on the bar graphs, representing the mean ±SEM
# (1 picture or pasted object on this page, not shown here)
# preferred substrates = conditions: cited from earlier work
# Procedure: The bacterial rhomboid proteases from Haemophilus influenzae (HiGlpG) and P. stuartii (AarA) cleave at a rate of roughly two per minute for their preferred substrates in DDM, while the E. coli rhomboid protease GlpG cleaves slowly in DDM, much like PARL, at a rate of approximately six per hour and with a rate of 2.5 min^−1 in PLs ([26], [34], [35]).
# [4] = lipid at molar ratio 50:1, mixed detergent (DDM)-lipid micelles
Molecule,"FC_60min (fold change of cleavage product, Annotated_Sequence) (PARLΔ77 [1])","FC_240min (fold change of cleavage product, Annotated_Sequence) (PARLΔ77 [1])","FC_60min (fold change of cleavage product, Annotated_Sequence) (PARLΔ77 [2]; TDP160: product INDFLVR.T)","FC_240min (fold change of cleavage product, Annotated_Sequence) (PARLΔ77 [2]; TDP160: product INDFLVR.T)",other results
"AETSIKVFMPYYGH [TDP91, synthetic tetradecapeptide of the 228-peptide library]",43.5042,295.878,,,
"AMTDRGWYLAIQAV [TDP15, synthetic tetradecapeptide of the 228-peptide library]",,,247.32,689.515,
"GPKLTYDFWIQNLP [TDP89, synthetic tetradecapeptide of the 228-peptide library]",,,270.23,1077.04,
"GQYPMFVKISTTHW [TDP96, synthetic tetradecapeptide of the 228-peptide library]",35.4935,328.605,,,
"INDFLVRTWKMPGL [TDP160, synthetic tetradecapeptide of the 228-peptide library]",,,264.961,895.528,"FC_60min (fold change of cleavage product, Annotated_Sequence) (PARLΔ77 [2]; product F.LVRTWKLPGL): 150.552; FC_240min (fold change of cleavage product, Annotated_Sequence) (PARLΔ77 [2]; product F.LVRTWKLPGL): 507.811"
"MHSPWTMANFLRGP [TDP94, synthetic tetradecapeptide of the 228-peptide library]",254.488,1890.88,682.585,2284.43,
"NVDWTAPQLIEYLD [TDP138, synthetic tetradecapeptide of the 228-peptide library]",42.87,40.3813,,,
"QAVRPNGMYWHYLM [TDP216, synthetic tetradecapeptide of the 228-peptide library]",43.2174,200.338,,,
cardiolipin [CL],,,,,effect on PARL activity (PARLΔ77 [3]; [4]): significant increase in PARL activity
phosphatidylethanolamine [POPE],,,,,"effect on PARL activity (PARLΔ77 [3]; [4]): did not significantly increase PARL activity; effect on PARL activity (PARLΔ77 [3]; lipid at molar ratio 100:1, mixed detergent (DDM)-lipid micelles): did not significantly increase PARL activity"
B1,,,,,"cleavage rate (preferred substrates; preferred substrates, in DDM): roughly two"
B2,,,,,"cleavage rate (preferred substrates; preferred substrates, in DDM): roughly two"
B3,,,,,cleavage rate (preferred substrates; in DDM): approximately six; cleavage rate (preferred substrates; in PLs): 2.5 min⁻¹
